This is an account of results in patent publication US20080181971A1, “Combination Cancer Treatments Comprising Elsamitrucin and Other Agents” (priority 2007, published 2008).

SMILES strings stand for the structures. Where “and” joins values, the source holds several entries; their conditions need not be identical. Identical values can stand only once. Like-named read-outs stand apart in the source and are kept apart here.

Series [1] deals with Daudi human lymphoma cell line. Put plainly: MTT growth inhibition assay, single agents and fixed-ratio combinations with elsamitrucin (Chou-Talalay, CalcuSyn), Daudi. It is filed as cell-based. The procedure:
These individual agents and their combinations were evaluated for in vitro activity against the HT29 colon carcinoma, SKMES non-small cell lung carcinoma, and Daudi B-lymphoblastic cell lines. Cell growth in 96-well microculture plates was determined with a semi-automated MTT assay. Efficacies of drug combinations were analyzed according to the methods of Chou and Talalay, utilizing CalcuSyn software. Twenty-one in vitro experiments were conducted to determine the individual and combined growth inhibitory activities of elsamitrucin and the ten selected agents in the three cell lines.
b. Cell Lines. The human HT29 colon carcinoma, SKMES non-small cell lung carcinoma, and Daudi B-lymphoblastic cell lines were originally obtained from ATCC (American Type Culture Collection). These cell lines have been maintained and stored as frozen stocks. […] The medium for Daudi cells was additionally supplemented with 1 mM sodium pyruvate.
c. Growth Inhibition Assay. Anti-proliferative activities against the HT29, SKMES, and Daudi cell lines were evaluated in vitro by the MTT assay. Cells (1,500-2,000 cells/well) were seeded in a 96-well microculture plate in 180 pL of medium/well. […] DMSO was present in all wells at a final concentration of 0.1%. […] When the appropriate cell density was attained in the control wells, the plates were centrifuged briefly, and 100 pL of the growth medium was removed. The cell cultures were incubated with 50 μL of MTT reagent (1 mg/mL in Dulbecco's phosphate-buffered saline) for 4 hr at 37° C. The resultant purple formazan precipitate was solubilized with 200 μL of 0.04 N HCl in isopropanol.
The results of each experiment were stored in Excel format.
d. Preliminary Experiments: Design and Data Analysis. […] The initial experiments utilized serial three-fold dilutions of the drugs to produce ten test concentrations over a broad concentration range. Based on the initial results, a narrower concentration range was selected, and serial 1:1.5 dilutions were utilized to produce ten test concentrations. Experiments were repeated as needed.
For assays that utilized lower dilution factors to produce narrower concentration ranges, the results were analyzed with both Prism and CalcuSyn (as described below) to allow comparison of the IC50 and Da, values. The results guided the selection of appropriate concentration ranges and concentration ratios for the combination experiments.
e. Combination Experiments: Design and Data Analysis. The fixed-ratio design of Chou was used for the combination experiments. For each experiment, the drug solutions were mixed at a ratio that was expected to provide approximately equipotent concentrations, and the mixture was serially diluted with medium containing 1% DMSO to yield 10× stock solutions of the test concentrations. […] Each agent was tested individually and in combination at seven concentrations. The concentration range selected for each assay was designed to bracket the concentrations that produced half-maximal effects (ED50) with each single agent and their mixture. The concentrations used for the single-drug assays were twice as high as their concentrations in the mixture. Each assay was performed in quadruplicate. For each drug combination, the individual agents and their mixture were assayed on the same 96-well plate. The effects of the individual drugs and their combinations were analyzed by the method of Chou and Talalay. The results of each experiment were entered into CalcuSyn (BIOSOFT) for dose-effect analysis.
where Acontrol and Adrug are the respective absorbances of vehicle control and drug-treated wells in the MIT assay.
where the slope, m, is related to the sigmoidicity of the dose-effect curve, with m=1, >1, and <1 indicating hyperbolic, sigmoidal, and reverse sigmoidal shapes, respectively.

The conditions of series [2]: i.p., qd x5; cited from earlier work.
The nature of series [3]: HCT116-e256 study: toxicity (body weight, treatment-related deaths, clinical signs). It is filed as in vivo, nude mice. From the text:
f. Toxicity. Animals were weighed daily for the first five days of the study and then twice weekly. […] Acceptable toxicity is defined as a group mean body-weight loss of less than 20% during the study and not more than one treatment-related (TR) death among ten treated animals. […] A death was classified as TR if attributable to treatment side effects as evidenced by clinical signs and/or necropsy, or may be classified as TR if due to unknown causes during the dosing period or within 10 days of the last dose. A death was classified as an NTR if there is no evidence that death was related to treatment side effects.

Series [4] relates to HCT116 human colon carcinoma. The note with it: i.v., qod x5; cited from earlier work.
Where [5] appears, read: Homo sapiens, Daudi, SPA-05 (Daudi-e01), single agent, dilution 1:3, read-out: Prism IC50.
[6] abbreviates: Homo sapiens, Daudi, average of preliminary single-agent experiments, Daudi, read-out: Average IC50, Dm value.
Where [7] appears, read: Groups 2,4,6,8,10: elsamitrucin 10 mg/kg ip q4d x3, paclitaxel 15 mg/kg iv qod x5, cisplatin 2.7 mg/kg ip qd x5.
Where [8] appears, read: Groups 3,5,7,9,11: elsamitrucin 5 mg/kg ip q4d x3, paclitaxel 7.5 mg/kg iv qod x5, cisplatin […] ip qd x5.

As for `N.N.[Cl][Pt][Cl]` [Cisplatin, cisplatin], the IC50 in series [1] (Daudi growth inhibition, second agent alone, one value per plate, Table 8 (Supplement), read-out: Dm Value (95% Confidence Interval), Individually, Second Agent) is 494 nM; in series [1] (Daudi growth inhibition, second agent alone, Table 8, read-out: Dm Value (95% Confidence Interval), Individually, Second Agent), 494 nM; in series [1] (Daudi, read-out: approximate Dm values for the second drugs as single agents) it was about 490 nM; in series [1] (SPA-05 (Daudi-e01), single agent, dilution 1:3, read-out: Prism IC50) it was 367 nM; in series [1] (SPA-08 (Daudi-e02), single agent, dilution 1:1.5, read-out: CalcuSyn Dm) it was 343 nM; in series [1] (SPA-08 (Daudi-e02), single agent, dilution 1:1.5, read-out: Prism IC50), 344 nM. The IC50 in series [1] (average of preliminary single-agent experiments, Daudi, read-out: Average IC50, Dm value) is 351 nM. Also, in series [1] (Daudi, in combination with elsamitrucin versus single agent), the “decrease of Dm in the combination” value is 59%. In addition, in series [2], the “MTD revealed in previous studies” value is 2.7 mg/kg.

Take `CO[C@@H]1[C@@H](N)[C@@H](O[C@H]2[C@H](Oc3cccc4c(O)c5c(=O)oc6ccc(C)c7c(=O)oc(c34)c5c67)O[C@H](C)[C@H](O)[C@]2(C)O)O[C@H](C)[C@@H]1O` [Elsamitrucin, benzo(h)(1)benzopyrano(5,4,3-cde)(1)ebnzopyran-5,12-dione,10((2-O-(2-amino-2,6-dideoxy-3-O-methyl-alpha-D-galactopyranosyl)-6-deoxy-3-C-methyl-beta-D-galactopyranosyl)oxy)-6-hydroxy-1-methyl]: the IC50 in series [1] (Daudi growth inhibition, elsamitrucin alone, one value per plate, Table 8 (Supplement), read-out: Dm Value (95% Confidence Interval), Individually, Elsamitrucin) was 23 nM and 30 nM and 28 nM and 15 nM and 13 nM and 34 nM and 26 nM; in series [1] (Daudi growth inhibition, elsamitrucin alone, one value per plate, Table 8, read-out: Dm Value (95% Confidence Interval), Individually, Elsamitrucin), 30 nM and 28 nM and 13 nM and 34 nM and 26 nM and 23 nM; in series [1] (setting [5]), 12 nM; in series [1] (Homo sapiens, Daudi, SPA-15 (Daudi-e03), single agent, dilution 1:1.5 (elsamitrucin 1:1.33), read-out: CalcuSyn Dm), 46 nM; in series [1] (Homo sapiens, Daudi, SPA-15 (Daudi-e03), single agent, dilution 1:1.5 (elsamitrucin 1:1.33), read-out: Prism IC50), 40 nM; in series [1] (setting [6]), 33 nM. For the same compound, the IC50 is 27 nM in series [1] (Homo sapiens, Daudi, single agent, ten assays of Table 8, read-out: average Dm) and 13 to 34 nM in series [1] (Homo sapiens, Daudi, single agent, ten assays of Table 8, read-out: range of Dm). In addition, the “Day of Mean BW Nadir” value in series [3] (setting [7]) and in series [3] (setting [8]) was 7 days throughout. Moreover, the “Mean BW Nadir (lowest group mean body weight, as % change from Day 1)” value in series [3] (setting [7]) is −8.4%; in series [3] (Groups 3,5,7,9,11: elsamitrucin 5 mg/kg ip q4d x3, paclitaxel 7.5 mg/kg iv qod x5, cisplatin […] ip qd x5, — indicates no decrease in mean body weight was observed), −4.8%. The “No. of NTR (non-treatment-related death)” value in series [3] (setting [7]) and in series [3] (setting [8]) was 0 each time. The “No. of TR (treatment-related death)” value in series [3] (setting [7]) and in series [3] (setting [8]) was 0 throughout. Besides, the “group body weight loss” value in series [3] (elsamitrucin 10 mg/kg, in monotherapy and in the combinations) is on record as “modest group BW losses”.

Regarding `CC(=O)O[C@H]1C(=O)[C@@]2(C)[C@H]([C@H](OC(=O)c3ccccc3)[C@]3(O)C[C@H](OC(=O)[C@H](O)[C@@H](NC(=O)c4ccccc4)c4ccccc4)C(C)=C1C3(C)C)[C@]1(OC(C)=O)CO[C@@H]1C[C@@H]2O` [Paclitaxel, paclitaxel], the IC50 in series [1] (Homo sapiens, Daudi, Daudi growth inhibition, second agent alone, one value per plate, Table 8 (Supplement), read-out: Dm Value (95% Confidence Interval), Individually, Second Agent) is 4 nM; in series [1] (Homo sapiens, Daudi, Daudi growth inhibition, second agent alone, Table 8, read-out: Dm Value (95% Confidence Interval), Individually, Second Agent) it was 4 nM; in series [1] (setting [5]) it was 3.6 nM; in series [1] (Homo sapiens, Daudi, SPA-08 (Daudi-e02), single agent, dilution 1:1.5, read-out: CalcuSyn Dm) it was 4.1 nM; in series [1] (Homo sapiens, Daudi, SPA-08 (Daudi-e02), single agent, dilution 1:1.5, read-out: Prism IC50), 3.3 nM; in series [1] (setting [6]) it was 4 nM. In addition, in series [1] (Homo sapiens, Daudi, read-out: approximate Dm values for the second drugs as single agents), the IC50 is about 4 nM. Also, in series [3] (setting [7]), the “Day of Mean BW Nadir” value amounted to 7 days. Also, the “Mean BW Nadir (lowest group mean body weight, as % change from Day 1)” value in series [3] (setting [7]) was −4.6%. Also, the “No. of NTR (non-treatment-related death)” value in series [3] (setting [7]) and in series [3] (setting [8]) was 0 throughout. Further, the “No. of TR (treatment-related death)” value in series [3] (setting [7]) and in series [3] (setting [8]) was 0 each time. Further, the “optimum therapeutic dose identified in previous studies” value in series [4] is 30 mg/kg.
